For experiment [1], the target named is Serotonin 2 (5-HT2) receptor (Rattus norvegicus, UniProt P30994+P08909+P14842). Put plainly: Binding affinity to 5-hydroxytryptamine 2 receptor using [3H]ketanserin radioligand assay. The format is protein assay.
For experiment [2], the target named is T1, 5-hydroxytryptamine receptor 1A (Rattus norvegicus, UniProt P19327).
T1 sequence (P19327 whole entry): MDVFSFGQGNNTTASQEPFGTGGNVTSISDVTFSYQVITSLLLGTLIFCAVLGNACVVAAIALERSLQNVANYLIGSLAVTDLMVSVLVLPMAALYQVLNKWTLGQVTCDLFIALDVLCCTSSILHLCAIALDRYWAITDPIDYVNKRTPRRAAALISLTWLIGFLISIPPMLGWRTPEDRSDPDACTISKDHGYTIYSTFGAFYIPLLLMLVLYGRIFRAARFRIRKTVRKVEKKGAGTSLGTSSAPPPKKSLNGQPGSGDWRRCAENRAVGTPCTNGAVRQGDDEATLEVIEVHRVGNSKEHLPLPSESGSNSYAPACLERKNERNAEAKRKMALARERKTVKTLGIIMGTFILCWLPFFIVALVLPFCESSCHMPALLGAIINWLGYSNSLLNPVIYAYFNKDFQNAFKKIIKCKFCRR
Put plainly: Binding affinity to 5-hydroxytryptamine 1A receptor using [3H]8-OH-DPAT radioligand assay.

For `CCCN1CCC=C(c2c[nH]c3ccc(C(=O)OC)cc23)C1`, the Ki was greater than 50000 nM in experiment [1] and 214 nM in experiment [2].
The corresponding values for `CCCN1CCC=C(c2c[nH]c3ccc(C#N)cc23)C1` are 958 nM and 303 nM.
On the same counts, the results for `CCCN1CCC=C(c2c[nH]c3ccccc23)C1` are 146 nM and 556 nM.
The corresponding values for `COc1ccc2[nH]cc(C3=CCCN(C)C3)c2c1` are 716 nM and 79 nM.
As for `CCCN1CCC=C(c2c[nH]c3ccc(Br)cc23)C1`, the Ki is 139 nM in experiment [1] and 192 nM in experiment [2].
With `COC(=O)c1ccc2[nH]cc(C3=CCCN(C)C3)c2c1`, the values for the Ki in experiment [1] and in experiment [2] were 5360 nM and 102 nM, respectively.
The corresponding values for `CC(=O)Nc1ccc2[nH]cc(C3=CCCN(C)C3)c2c1` are 14536 nM and 16 nM.
The corresponding values for `CN1CCC=C(c2c[nH]c3ccc(Br)cc23)C1` are 82 nM and 50 nM.
On the same counts, the results for `CN1CCC=C(c2c[nH]c3ccc(C(N)=O)cc23)C1` are greater than 10000 nM and 3.8 nM.
On to `CCN1CCC=C(c2c[nH]c3ccc(Cl)cc23)C1`, for which the Ki is 150 nM in experiment [1] and 47 nM in experiment [2].
On the same counts, the results for `Cc1ccc2[nH]cc(C3=CCCN(C)C3)c2c1` are 194 nM and 72 nM.
The corresponding values for `CN1CCC=C(c2c[nH]c3ccc(O)cc23)C1` are 237 nM and 145 nM.
Turning to `CC(=O)c1ccc2[nH]cc(C3=CCCN(C)C3)c2c1`, the Ki in experiment [1] was 3383 nM; in experiment [2] it was 91 nM.
On the same counts, the results for `COc1ccc2[nH]cc(C3=CCCNC3)c2c1` are 230 nM and 5.7 nM.
`CN1CCC=C(c2c[nH]c3ccc(C#N)cc23)C1`: the Ki in experiment [1] came out at 1035 nM; in experiment [2] it was 129 nM.
The corresponding values for `CCN1CCC=C(c2c[nH]c3ccc(C#N)cc23)C1` are 1360 nM and 186 nM.
For `CCCN1CCC=C(c2c[nH]c3ccc(OC)cc23)C1`, the Ki in experiment [1] was determined as 1070 nM; in experiment [2], 226 nM.
As for `CN1CCC=C(c2c[nH]c3ccc(F)cc23)C1`, the values for the Ki in experiment [1] and in experiment [2] were 43 nM and 124 nM, respectively.
For `CN1CCC=C(c2c[nH]c3ccc(Cl)cc23)C1`, the Ki in experiment [1] amounted to 107 nM; in experiment [2] it was 113 nM.
As for `CCN1CCC=C(c2c[nH]c3ccc(F)cc23)C1`, the figures for the Ki in experiment [1] and in experiment [2] were 67 nM and 142 nM, respectively.
On the same counts, the results for `CCCN1CCC=C(c2c[nH]c3ccc(NC(C)=O)cc23)C1` are greater than 50000 nM and 205 nM.
On the same counts, the results for `CCCN1CCC=C(c2c[nH]c3ccc(C(N)=O)cc23)C1` are 19152 nM and 4.7 nM.
In the case of `CN1CC[C@@H]2CCc3[nH]c4ccccc4c3[C@H]2C1`, the Ki amounted to 325 nM in experiment [1] and 2360 nM in experiment [2].
On the same counts, the results for `CCN1CCC=C(c2c[nH]c3ccc(Br)cc23)C1` are 125 nM and 24 nM.
The corresponding values for `CCN1CCC=C(c2c[nH]c3ccc(C)cc23)C1` are 246 nM and 42 nM.
`CN1CCC=C(c2c[nH]c3ccccc23)C1`: the Ki in experiment [1] is 139 nM; in experiment [2] it was 261 nM.
Consider `CCN1CCC=C(c2c[nH]c3ccc(OC)cc23)C1`, for which the Ki in experiment [1] turned out to be 1130 nM; in experiment [2] it was 71 nM.
Consider `CCN1CCC=C(c2c[nH]c3ccccc23)C1`, for which the Ki in experiment [1] was found to be 165 nM; in experiment [2] it was 213 nM.

Broadly, the Ki is a dissociation constant, usually derived from enzyme kinetics or from competition with a known ligand. Low values mean a stronger hold on the target, high ones a looser hold on the target.

(Values after ChEMBL document CHEMBL1128098, “Synthesis and serotonin receptor binding properties of 5-substituted 3-(1,2,5,6-tetrahydropyridin-3-yl) indoles” (Bioorg Med Chem Lett, 1995).)
